In patent US12484584B2, “Methods and uses of a mixture comprising alpha-cypermethrin and dinotefuran for controlling bed bugs” (BASF AGRO B.V., priority 2020, dated 2025):
Like-named read-outs stand apart in the source and are kept apart here.

Tested on: C. lectularius
Test: residual contact assay in treated glass vials, with Colby synergy analysis
Assay type: in vivo
Conditions: Cimex lectularius, 72 h; for mortality at 1 ppm: 1 ppm alpha-cypermethrin; for mortality at 2 ppm: 2 ppm dinotefuran; for mortality at 4 ppm: 4 ppm dinotefuran; for mortality at 6 ppm: 6 ppm dinotefuran; for mortality at 8 ppm: 8 ppm dinotefuran
Description: Glass vials (20 mL scintillation) were treated with 445 μL of varying concentrations of α-cypermethrin dissolved in acetone, respectively dinotefuran or mixtures of α-cypermethrin and dinotefuran in the indicated ratios. Vials were turned on their sides and placed on an automated roller table. The vials were rolled (6 rpm) uncapped to allow an even coating of the treatment. After rolling, vials were allowed to completely dry for at least an hour. Each treatment was replicated five times. Approximately six bed bugs, Cimex lectularius, were placed into each vial and were exposed to treatments at room temperature for the duration of the study.
After dose response testing, assays combining two active ingredients were conducted using the same method described above. The rates used in the combination treatments for each active ingredient, α-cypermethrin and dinotefuran, were the same concentrations used when they were tested independently.
When applied in combination, the toxicological interaction between two compounds is classified based on the resultant impact on the observed effect. The interaction is termed antagonistic when the observed effect is less than the Colby expected mortality based on the responses of the two compounds applied independently at the same doses. When the observed effect of two compounds applied in combination is equal to that of the Colby expected mortality based on the responses of the two compounds applied independently, the relationship is described as additive. Finally, a synergistic interaction means that the effect of the two compounds applied in combination is greater than the Colby expected mortality based on the responses of the two compounds applied independently at the same doses.
Ataxia+mortality data at 48 hours were used to determine whether there was a synergistic effect in the combined use of α-cypermethrin and dinotefuran.
Abbott's correction for control mortality and the Colby method for testing synergy were used to analyze combination data. The method is as follows: Abbott's corrected mortality per observation (at 3 DAE)=[(% observed mortality−% control mortality)/(100%−% control mortality)]×100. Colby's expected mortality per combination observation=% mortality (A)+% mortality (B)−(% mortality (A)×% mortality (B))/100. Synergy ratio=% observed mortality/% Colby expected mortality.
Additive interactions have synergy ratios equal to 1, antagonistic interactions have synergy ratios of less than 1, and synergistic interactions have synergy ratios of greater than 1.

[1] = corrected for control mortality, read-out: Abbott's CM (Abbott's corrected mortality)
[2] = residual contact, read-out: Mortality (%) @ 72 h

Compound | mortality at 1 ppm [1] [%] | mortality at 1 ppm [2] [%] | mortality at 2 ppm [1] [%] | mortality at 2 ppm [2] [%] | mortality at 4 ppm [1] [%] | mortality at 4 ppm [2] [%] | mortality at 6 ppm [1] [%] | mortality at 6 ppm [2] [%] | mortality at 8 ppm [1] [%] | mortality at 8 ppm [2] [%]
CC1(C)C(C=C(Cl)Cl)C1C(=O)OC(C#N)c1cccc(Oc2ccccc2)c1 (racemic) [alpha-cypermethrin, racemate comprising (R)-α-cyano-3-phenoxybenzyl (1S, 3S)-3-(2,2-dichlorovinyl)-2,2-dimethylcyclopropanecarboxylate; (S)-α-cyano-3-phenoxybenzyl (1R, 3R)-3-(2,2-dichlorovinyl)-2,2-dimethylcyclopropanecarboxylate] | 24.1 | 26.7 |  |  |  |  |  |  |  | 
CNC(=N[N+](=O)[O-])NCC1CCOC1 (racemic) [dinotefuran, (RS)-1-methyl-2-nitro-3-(tetrahydro-3-furylmethyl) guanidine] |  |  | 3.4 | 6.7 | 3.4 | 6.7 | 3.4 | 6.7 | 3.4 | 6.7
